Values of other authors in patent US20260174880A1, “ELECTROPHILIC REACTIVE LINKERS FOR LABELING OF POLYPEPTIDES AND METHODS OF USE THEREOF” (The Brigham and Women's Hospital, Inc., priority 2023, published 2026).
Where two headings read alike, the source gives them in different places.

How the values were obtained:
[1] = system: NF- B Pathway; settings: at 5 μM
[2] = target: T1, Recombinant PKC (Homo sapiens, UniProt Q05513); settings: for % … 62.5 μM (cell…): at 62.5 μM
T1 sequence (Q05513 1-592): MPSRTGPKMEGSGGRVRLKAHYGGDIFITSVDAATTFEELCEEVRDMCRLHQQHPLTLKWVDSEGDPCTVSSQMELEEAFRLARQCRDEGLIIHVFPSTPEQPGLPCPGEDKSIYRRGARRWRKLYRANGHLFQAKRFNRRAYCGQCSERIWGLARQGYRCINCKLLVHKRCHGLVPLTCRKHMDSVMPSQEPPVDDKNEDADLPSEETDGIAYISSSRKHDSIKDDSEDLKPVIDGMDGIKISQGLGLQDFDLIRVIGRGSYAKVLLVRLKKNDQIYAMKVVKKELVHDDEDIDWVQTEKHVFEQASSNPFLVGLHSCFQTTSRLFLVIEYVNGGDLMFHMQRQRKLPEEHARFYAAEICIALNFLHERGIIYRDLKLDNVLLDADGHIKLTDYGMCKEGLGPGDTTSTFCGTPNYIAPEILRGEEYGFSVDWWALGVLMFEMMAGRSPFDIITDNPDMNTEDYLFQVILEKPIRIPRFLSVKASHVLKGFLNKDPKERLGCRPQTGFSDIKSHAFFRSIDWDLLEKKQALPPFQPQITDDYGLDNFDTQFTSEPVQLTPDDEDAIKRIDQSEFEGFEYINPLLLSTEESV

[3] = target: AKT1 (Homo sapiens, UniProt P31749); settings: the 24th table, the 25th table
[4] = target: T2, PDK1 (Homo sapiens, UniProt O15530); settings: the 35th table; read-out: AC…
T2 sequence (O15530 1-556): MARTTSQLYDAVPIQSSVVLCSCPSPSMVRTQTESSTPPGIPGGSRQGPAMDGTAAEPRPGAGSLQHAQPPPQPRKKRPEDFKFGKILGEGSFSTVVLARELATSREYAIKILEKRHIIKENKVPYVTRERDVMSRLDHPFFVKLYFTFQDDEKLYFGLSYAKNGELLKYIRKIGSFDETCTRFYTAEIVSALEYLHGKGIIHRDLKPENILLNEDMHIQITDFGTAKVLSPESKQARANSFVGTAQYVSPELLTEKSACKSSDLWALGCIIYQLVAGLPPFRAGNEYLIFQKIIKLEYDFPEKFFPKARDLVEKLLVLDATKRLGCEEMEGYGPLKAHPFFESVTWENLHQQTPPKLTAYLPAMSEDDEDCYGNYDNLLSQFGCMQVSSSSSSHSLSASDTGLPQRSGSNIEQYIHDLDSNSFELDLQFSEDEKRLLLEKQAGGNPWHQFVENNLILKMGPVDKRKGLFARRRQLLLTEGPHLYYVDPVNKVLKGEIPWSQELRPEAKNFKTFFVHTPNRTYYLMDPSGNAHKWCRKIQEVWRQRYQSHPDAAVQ

[5] = target: T2, PDK1; settings: for T…: the 35th table c7; for …G: the 35th table c8
[6] = system: Akt; settings: the 26th table
[7] = system: NF-κB dependent transcription
[8] = target: MEK2 (Homo sapiens, UniProt P36507)
[9] = target: MEK1 (Homo sapiens, UniProt Q02750)
[10] = system: other kinases; settings: at 1000 nM EAI045
[11] = system: Molt-4 (T cell acute lymphoblastic leukemia) xenografts; settings: SCID mice
[12] = target: T2, PDK1
[13] = system: MERS-COV; settings: in vitro
[14] = not given; remark: listed apart in the source
[15] = system: C26
[16] = target: T3, Aurora A (Homo sapiens, UniProt O14965); settings: the 30th table
T3 sequence (O14965 1-403): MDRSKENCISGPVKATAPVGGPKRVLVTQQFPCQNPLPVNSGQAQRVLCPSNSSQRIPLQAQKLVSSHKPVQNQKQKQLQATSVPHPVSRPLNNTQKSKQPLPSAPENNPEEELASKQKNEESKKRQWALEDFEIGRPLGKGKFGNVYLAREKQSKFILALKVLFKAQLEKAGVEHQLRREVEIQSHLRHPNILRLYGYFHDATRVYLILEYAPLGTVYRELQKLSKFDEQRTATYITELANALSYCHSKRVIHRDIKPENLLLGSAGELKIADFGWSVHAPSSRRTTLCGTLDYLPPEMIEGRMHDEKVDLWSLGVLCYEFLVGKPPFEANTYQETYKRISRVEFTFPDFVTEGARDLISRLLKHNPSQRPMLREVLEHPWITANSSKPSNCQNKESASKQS

[17] = system: breast carcinoma, prostate carcinoma, colon carcinoma and pancreatic carcinoma xenografts; settings: in vivo
[18] = target: p38α MAPK (Homo sapiens, UniProt Q16539)
Sequence of p38α MAPK (Q16539 whole entry): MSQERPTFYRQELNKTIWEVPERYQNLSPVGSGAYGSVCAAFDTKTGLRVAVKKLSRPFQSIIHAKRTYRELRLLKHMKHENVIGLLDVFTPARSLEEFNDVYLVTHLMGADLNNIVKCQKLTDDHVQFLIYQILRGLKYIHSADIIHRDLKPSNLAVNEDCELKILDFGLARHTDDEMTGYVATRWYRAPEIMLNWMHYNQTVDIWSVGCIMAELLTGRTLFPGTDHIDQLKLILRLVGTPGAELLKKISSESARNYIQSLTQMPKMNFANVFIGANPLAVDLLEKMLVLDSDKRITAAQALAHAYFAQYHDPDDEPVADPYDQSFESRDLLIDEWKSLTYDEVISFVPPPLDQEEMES

Sequence of AKT1 (P31749 whole entry): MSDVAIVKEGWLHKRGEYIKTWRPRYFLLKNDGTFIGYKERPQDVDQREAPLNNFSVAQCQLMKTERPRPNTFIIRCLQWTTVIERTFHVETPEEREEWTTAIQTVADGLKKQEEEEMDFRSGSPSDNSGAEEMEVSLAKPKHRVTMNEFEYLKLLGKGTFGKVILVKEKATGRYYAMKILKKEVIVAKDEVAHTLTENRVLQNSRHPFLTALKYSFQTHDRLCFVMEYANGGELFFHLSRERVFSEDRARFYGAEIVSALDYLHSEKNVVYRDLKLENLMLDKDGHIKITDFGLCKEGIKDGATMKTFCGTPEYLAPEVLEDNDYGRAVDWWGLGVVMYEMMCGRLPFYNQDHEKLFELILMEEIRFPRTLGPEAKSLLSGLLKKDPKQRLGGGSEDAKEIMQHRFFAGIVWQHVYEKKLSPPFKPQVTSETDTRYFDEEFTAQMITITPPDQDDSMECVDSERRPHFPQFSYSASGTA
Sequence of MEK2 (P36507 whole entry): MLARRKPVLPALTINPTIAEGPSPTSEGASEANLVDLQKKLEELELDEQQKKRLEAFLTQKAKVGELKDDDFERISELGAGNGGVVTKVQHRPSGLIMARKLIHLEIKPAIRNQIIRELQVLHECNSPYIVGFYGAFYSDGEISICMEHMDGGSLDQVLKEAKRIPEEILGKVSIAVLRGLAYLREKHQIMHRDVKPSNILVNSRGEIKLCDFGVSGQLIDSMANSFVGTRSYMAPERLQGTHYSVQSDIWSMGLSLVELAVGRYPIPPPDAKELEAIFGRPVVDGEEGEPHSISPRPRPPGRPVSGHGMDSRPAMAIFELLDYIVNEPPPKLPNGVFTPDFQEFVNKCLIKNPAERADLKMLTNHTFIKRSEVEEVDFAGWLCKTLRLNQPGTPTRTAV
Sequence of MEK1 (Q02750 whole entry): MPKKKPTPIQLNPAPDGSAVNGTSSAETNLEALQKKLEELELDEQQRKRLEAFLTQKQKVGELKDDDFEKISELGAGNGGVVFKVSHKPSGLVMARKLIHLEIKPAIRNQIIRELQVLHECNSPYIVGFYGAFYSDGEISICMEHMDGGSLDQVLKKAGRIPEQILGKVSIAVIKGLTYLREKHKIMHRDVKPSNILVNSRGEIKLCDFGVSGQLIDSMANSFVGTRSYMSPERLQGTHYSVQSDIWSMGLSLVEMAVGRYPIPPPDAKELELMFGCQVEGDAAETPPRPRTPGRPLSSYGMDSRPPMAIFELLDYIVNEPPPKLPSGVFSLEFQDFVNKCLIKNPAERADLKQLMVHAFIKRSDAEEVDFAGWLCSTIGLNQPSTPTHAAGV

CC(C)(C)C1=NN(c2ccc(Cl)cc2)C(c2ccc(O)cc2)C1 (centres unmarked) [1a]
% … 5 μM (NF…, U… cells) [1]: 75.1%

CC(C)(C)C1=NN(c2ccc(Br)cc2)C(c2ccc(O)cc2)C1 (centres unmarked) [1c]
% … 62.5 μM (cell…) [2]: 93.2%

CC(C)(C)C1=NN(c2ccc(C(F)(F)F)cc2)C(c2ccc(O)cc2)C1 (centres unmarked) [1d]
% … 62.5 μM (cell…) [2]: 94.2%

Cc1ccc(N2N=C(C(C)(C)C)CC2c2ccc(O)cc2)cc1 (centres unmarked) [1e]
% … 5 μM (NF…, U… cells) [1]: 62.9%

CC(C)(C)C1=NN(c2ccc(C(=O)O)cc2)C(c2ccc(O)cc2)C1 (centres unmarked) [1g]
% … 5 μM (NF…, U… cells) [1]: 40.7%

CC(C)(C)C1=NN(c2cccc(Cl)c2)C(c2ccc(O)cc2)C1 (centres unmarked) [1h]
IC50 [2]: 3.2 µM | % … 62.5 μM (cell…) [2]: 96.8% | % … 5 μM (NF…, U… cells) [1]: 64.6%

CC(C)(C)C1=NN(c2cccc(C(F)(F)F)c2)C(c2ccc(O)cc2)C1 (centres unmarked) [1j]
% … 62.5 μM (cell…) [2]: 96.1%

Cc1cccc(N2N=C(C(C)(C)C)CC2c2ccc(O)cc2)c1 (centres unmarked) [1k]
% … 62.5 μM (cell…) [2]: 91.7% | % … 5 μM (NF…, U… cells) [1]: 71.7%

CC(C)(C)C1=NN(c2ccc(Cl)cc2Cl)C(c2ccc(O)cc2)C1 (centres unmarked) [1n]
% … 62.5 μM (cell…) [2]: 71.0%

Cc1ccc(N2N=C(C(C)(C)C)CC2c2ccc(O)cc2)c(C)c1 (centres unmarked) [1p]
% … 62.5 μM (cell…) [2]: 59.9% | % … 5 μM (NF…, U… cells) [1]: 41.5%

CC(C)(C)c1ccc(-n2c(-c3ccncc3)nc3cccnc32)cc1 [3a]
IC50 [3]: > 300 µM

COc1ccccc1Cn1c(-c2cccnc2N)nc2cccnc21 [3c]
IC50 [3]: 38 µM

NCc1ccc(-n2c(-c3cccnc3)nc3cccnc32)cc1 [5b]
IC50 [3]: 8.8 µM

O=C(O)/C=C(/CCc1ccc(Cl)c(Cl)c1)c1ccccc1 [7Z]
EC50 [4]: 2.8 µM | …H… ([5]; the 35th table c6): -3.71 kcal/mol | T… [5]: 2.80 kcal/mol | …G [5]: -6.56 kcal/mol | …H… ([5]; the 35th table c9): 56.6%

O=C(O)/C=C(/CCc1ccc(Cl)cc1Cl)c1ccccc1 [8Z]
EC50 [4]: 4.7 µM | …H… ([5]; the 35th table c6): -2.08 kcal/mol | T… [5]: 4.93 kcal/mol | …G [5]: -7.07 kcal/mol | …H… ([5]; the 35th table c9): 29.5%

CC(=O)NCc1ccc(-n2c(-c3cccnc3N)nc3cccnc32)cc1 [8d]
IC50 [3]: 0.81 µM

Nc1ncccc1-c1nc2cccnc2n1-c1cccc(CNC(=O)c2ccccc2)c1 [8g]
IC50 [3]: 13 µM

Nc1ncccc1-c1nc2cccnc2n1-c1ccc(CNCc2ccccc2)cc1 [8h]
IC50 [3]: 0.26 µM

O=C(O)/C=C(/CCc1ccc2ccccc2c1)c1ccccc1 [12Z]
EC50 [4]: 8 µM | T… [5]: 1.96 kcal/mol | …G [5]: -6.87 kcal/mol | …H… ([5]; the 35th table c9): 58.3%

Nc1ncccc1-c1nc2cc(C3CCCC3)cnc2n1-c1ccc(CNC(=O)c2ccccc2)cc1 [12d]
IC50 [6]: > 100 µM

Nc1ncccc1-c1nc2cc(-c3cccnc3)cnc2n1-c1ccc(CNC(=O)c2cccc(F)c2)cc1 [12g]
IC50 [6]: 0.4 µM

Cc1ccc2nc(NCCN)c3ncc(C)n3c2c1 [BMS-345541]
NF-κB dependent transcription in mice [7]: block NF-κB dependent transcription

Cn1cnc2c(F)c(Nc3ccc(Br)cc3F)c(C(=O)NOCCO)cc21 [Binimetinib]
pIC50 [8]: 7.9 | pIC50 [9]: 7.9

O=C(Nc1nccs1)C(c1cc(F)ccc1O)N1Cc2ccccc2C1=O (centres unmarked) [EAI045]
inhibition of any other kinases in screening panels [10]: ≤ 20%

Nc1ccc(/C=C/C(=O)NCc2cc3cc(-c4ccc(C(=O)N5CCC(F)(F)CC5)cc4)cc(-c4ccc(F)cc4)c3o2)cn1 [KPT-9274]
Molt-4 xenografts [11]: induces shrinkage

O=S(=O)(Nc1nc2ccc(Cl)cc2s1)c1cc2ccccc2s1 [RS2]
Kd [12]: 9 µM

CO[C@H]1C[C@@H]2CC[C@@H](C)[C@@](O)(O2)C(=O)C(=O)N2CCCC[C@H]2C(=O)O[C@H]([C@H](C)C[C@@H]2CC[C@@H](O)[C@H](OC)C2)CC(=O)[C@H](C)/C=C(\C)[C@@H](O)[C@@H](OC)C(=O)[C@H](C)C[C@H](C)/C=C/C=C/C=C/1C [Sirolimus]
MERS-COV infection of Huh7 cells [13]: inhibits MERS-COV infection

CC(=O)Nc1cccc(-n2c(=O)n(C3CC3)c(=O)c3c(Nc4ccc(I)cc4F)n(C)c(=O)c(C)c32)c1 [Trametinib]
Absorption/distribution of an oral dose of trametinib tablet: 72%

O=C(O)c1cc(-c2cccc(C(F)(F)F)c2)nc2ccccc12 [compound 34]
Sol (pH 6.5) [14]: 190 μg/mL | IC50 [15]: 0.00033 µM | IC50 [16]: 26.5 µM | Ki ([16]; read-out: Calculated K…): 507 µM

O=C1NC(=O)[C@@H](c2cn3c4c(cccc24)CCC3)[C@@H]1c1c[nH]c2ccccc12 [tivantinib]
growth of carcinoma xenografts [17]: inhibition of growth

Skepinone-B
residence times [18]: 150 s
